Key:
[1] = test system: RGA-GFP; assay: DELLA degradation: confocal imaging of RGA-GFP fluorescence in roots; type: in vivo, Arabidopsis thaliana; conditions: 100 μM; for GFP fluorescence / stability of DELLA protein in roots: A1 imaged after 2 and 24 hours, PAC applied 48 hours before
Description: (§1) Arabidopsis thaliana wild-type seeds were from laboratory stocks of Columbia (Col-0) and Landsberg erecta (Ler-0) accessions. Arabidopsis thaliana is a dicot. The mutants of gid1 (J. Griffiths, et al., Plant Cell, 2006, 18, 3399-3414) were obtained from Dr. Steve Thomas (Rothamsted Research, UK) and were in a Col-0 background, whilst the della quintuple mutant (S. H. Feng et al. Nature, 2008, 451: 475-479) and ga1-5 (I. Fridborg et al. Plant Cell, 1999, 11: 1019-1031) were in a Ler-0 background and was obtained from the Nottingham Arabidopsis Stock Centre (NASC). The A. thaliana line expressing RGA-GFP (A. L. Silverstone et al. The Plant Cell, 2001, 13: 1555-1565), Col-0 background was obtained from Prof. Keith Lindsey (Durham University, UK). Seeds were plated out 1×MS medium pH 5.8 (T. Murashige and F. Skoog (1962) Physiologia Plantarum 15: 473-497) in petri dishes with a concentration of either 0.8% or 1.2% (w/v) phytoagar for root and hypocotyl measurements, respectively. After sowing seeds were stratified on plates at 4° C. for a minimum of 48 h to achieve synchronous germination. Seedlings were grown for either 7 or 2 days for root and hypocotyl measurements, respectively, prior to treatment with chemicals. For hypocotyl measurements, seeds were sown on nylon mesh (acid resistant monofilament nylon filter mesh fabric; GZ, model number H20M). Seedling were grown in a Percival (CU-36L5D, CLF plant climatics, Emersacker, Germany) with a photoperiod of 16/8 h with a light intensity of either 150 μmol m^2 s^−1 or 50 μmol m^2 s^−1 for root and hypocotyl measurements, respectively, and a temperature of 20±1° C.
Confocal microscopy was performed using a Leica SP5 CLSM FLIM FCCS (Leica Microsystems, Wetzlar, Germany). GFP:RGA seeds were germinated and grown on 1.2% MS vertically for 7 days, and then incubated in chemical solution (at the final concentration of 100 μM) for 2 and 24 hours before being analyzed. […] The excitation wavelength of the argon laser was 488 nm and the emission was detected using a bypass filter of 495-550 nm. […]

[2] = test system: Arabidopsis thaliana wild-type; assay: Hypocotyl growth assay under reduced light; type: in vivo; conditions: 100 μM; for Hypocotyl growth promotion relative to A1 / Effect on hypocotyl growth in wild type: reduced light; for New length (cm): trials 1, 2, 3 and SAM each with own DMSO control
Description: as §1
After growing as described above seedlings for root assays were transferred to 1.2% (w/v) agar plates containing each chemical at a final concentration of 100 μM (the addition of the chemicals was performed when media had cooled to 50° C. after autoclaving), with an equivalent concentration of DMSO as control. At this stage the positions of the root tips were marked on the petri dish. The plants were subsequently grown vertically and after a further 5 days images of the plates were scanned and the root growth that occurred during the 5 days on chemicals was measured using ImageJ software. 18 seedlings were measured for each treatment. For hypocotyl measurements the assay performed was adapted from de Lucas et al. (2008, supra). After growing seedlings as described above, the nylon mesh was transferred across to the plates containing chemical. The plants were then placed in vertical orientation for three days under reduced light intensity (by covering plates with 2 layers of 80 g·m^2 white paper) before the plates were scanned. The measurement of hypocotyl was done using ImageJ software. At least 15 seedlings were measured for each plate.
To determine the mechanism of A1 action via the GA/DELLA signaling pathway, the response of A1 in a series of GA synthesis/signalling mutants was investigated. For these assays the focus was on hypocotyl growth, because it is well established that DELLA can inhibit the binding of PIFs to their target promoter leading to a reduction in GA-regulated hypocotyl growth (A. Castillon, H. Shen and E. Huq (2007) Trends in Plant Science, 12: 514-521.; de Lucas et al. 2008, supra; S. H. Feng et al. 2008, supra. To establish the use of A1 in this assay, hypocotyl growth was first tested by growing the seedlings on agar plates containing A1, with GA and PAC used as positive and negative controls, respectively, for three days in reduced light conditions to achieve a balance between maximum and minimum hypocotyl growth. […] Having established the hypocotyl assay, DELLA-dependence of the A1 effect was then confirmed genetically. To test this, a mutant line that lacks all DELLA (GAI, RGA, RGL1, RGL2 and RGL3) function was used.
The effect of additional compounds on hypocotyl growth was investigated using the same methods as described above (100 μM of each compound was used). […]

[3] = test system: Arabidopsis thaliana wild-type; assay: Root growth assay, seedlings on agar plates containing chemical; type: in vivo; conditions: 100 μM; for Root growth activity relative to A1: 7-day old seedlings, 5 days
Protocol: Arabidopsis thaliana wild-type seeds were from laboratory stocks of Columbia (Col-0) and Landsberg erecta (Ler-0) accessions. […] Seeds were plated out 1×MS medium pH 5.8 (T. Murashige and F. Skoog (1962) Physiologia Plantarum 15: 473-497) in petri dishes with a concentration of either 0.8% or 1.2% (w/v) phytoagar for root and hypocotyl measurements, respectively. After sowing seeds were stratified on plates at 4° C. for a minimum of 48 h to achieve synchronous germination. Seedlings were grown for either 7 or 2 days for root and hypocotyl measurements, respectively, prior to treatment with chemicals. […] Seedling were grown in a Percival (CU-36L5D, CLF plant climatics, Emersacker, Germany) with a photoperiod of 16/8 h with a light intensity of either 150 μmol m^2 s^−1 or 50 μmol m^2 s^−1 for root and hypocotyl measurements, respectively, and a temperature of 20±1° C.
The effect of the A1 analogues on root and hypocotyl growth was investigated. In order to allow a direct comparison with eW5, the concentration used in these assays was 100 μM. The root growth assay was performed by treating the 7-day old seedlings on chemical plates for 5 days.

[4] = test system: plant; conditions: known calmodulin inhibitors; cited from earlier work
[5] = test system: della quintuple mutant; assay: Hypocotyl growth assay in della quintuple mutant; type: in vivo, Arabidopsis thaliana
Description: (§2) Arabidopsis thaliana wild-type seeds were from laboratory stocks of Columbia (Col-0) and Landsberg erecta (Ler-0) accessions. Arabidopsis thaliana is a dicot. The mutants of gid1 (J. Griffiths, et al., Plant Cell, 2006, 18, 3399-3414) were obtained from Dr. Steve Thomas (Rothamsted Research, UK) and were in a Col-0 background, whilst the della quintuple mutant (S. H. Feng et al. Nature, 2008, 451: 475-479) and ga1-5 (I. Fridborg et al. Plant Cell, 1999, 11: 1019-1031) were in a Ler-0 background and was obtained from the Nottingham Arabidopsis Stock Centre (NASC). The A. thaliana line expressing RGA-GFP (A. L. Silverstone et al. The Plant Cell, 2001, 13: 1555-1565), Col-0 background was obtained from Prof. Keith Lindsey (Durham University, UK). […]
(§3) After growing as described above seedlings for root assays were transferred to 1.2% (w/v) agar plates containing each chemical at a final concentration of 100 μM (the addition of the chemicals was performed when media had cooled to 50° C. after autoclaving), with an equivalent concentration of DMSO as control. […] The plants were subsequently grown vertically and after a further 5 days images of the plates were scanned and the root growth that occurred during the 5 days on chemicals was measured using ImageJ software. 18 seedlings were measured for each treatment. […] At least 15 seedlings were measured for each plate. […]

[6] = test system: ga1-5 mutant; assay: Hypocotyl growth assay in GA biosynthesis mutant ga1-5; type: in vivo, Arabidopsis thaliana; conditions: 100 μM, three days
Description: as §2, §3

[7] = test system: Arabidopsis thaliana; assay: Fresh and dry weight measurements of treated seedlings; type: in vivo; conditions: 5 days chemical treatment
Protocol: Leaves and roots fresh weights of 12 days old seedlings, that were subjected to 5 days chemical treatment as described above, were measured. Dry weights were recorded after placing the plant material in oven at 65° C. for 3 days. The measurements were performed on 15 seedlings for each treatment.
Having discovered the root growth-promoting properties of A1, we wished to establish if the effects were limited to the roots, or whether A1 could also promote growth of shoot tissue. We were also interested to see if the effect was on fresh weight, dry weight or both. To investigate this, plants were treated with A1, divided into shoot and root material and the fresh and dry weight recorded.

[8] = test system: maize; assay: Growth of a monocot on application of A1; type: in vivo
[9] = test system: gid1 double mutants; assay: Hypocotyl growth assay in GA receptor gid1 double mutants; type: in vivo, Arabidopsis thaliana
Description: as §2, §3

[10] = hypocotyl, relative to the DMSO control of the same trial

CC(C)(C)[C@@H](O)[C@@H](Cc1ccc(Cl)cc1)n1cncn1 (racemic) [PAC, paclobutrazol, reference compound]
GFP fluorescence / stability of DELLA protein in roots [1]: stabilized the DELLA protein

Cl.NCCNS(=O)(=O)Cc1ccccc1 [Compound E3, Alpha-toluenesulfonylethylene Diamine Hydrochloric Acid Salt]
Hypocotyl growth promotion relative to A1 [2]: less hypocotyl growth promotion relative to A1 | Root growth activity relative to A1 [3]: higher activity than A1

Cc1ccc(CS(=O)(=O)NCCN)cc1.Cl [Compound E4, Alpha-p-xylenesulfonylethylene Diamine Hydrochloric Acid Salt]
Hypocotyl growth promotion relative to A1 [2]: less hypocotyl growth promotion relative to A1 | Root growth activity relative to A1 [3]: higher activity than A1

CN(CCN)S(=O)(=O)c1cccc2ccccc12.Cl [Compound E5, N-methyl-N-naphthylsulfonyl-1,2-ethanediamine Hydrochloric Acid Salt]
Hypocotyl growth promotion relative to A1 [2]: biggest effect | Root growth activity relative to A1 [3]: biggest effect

NCCCCCCNS(=O)(=O)c1cccc2ccccc12 [Compound W5, N-(6-Aminohexyl)-1-naphthalenesulfonamide]
Effect on plant growth [4]: inhibit plant growth

NCCCCCCNS(=O)(=O)c1cccc2c(Cl)cccc12 [Compound W7, N-(6-Aminohexyl)-5-chloro-1-naphthalenesulfonamide]
Effect on plant growth [4]: inhibit plant growth

CCOC(=O)CN(CCN)S(=O)(=O)c1cccc2ccccc12.Cl [SAM3, ethyl 2″-[N-(2′-aminoethyl)naphthalene-1-sulfonamido]acetate Hydrogen Chloride]
New length (cm) ([2]; hypocotyl, three days): 0.272 cm | Relative growth (cm) [2, 10]: 0.3807

CCOC(=O)C(C)N(CCN)S(=O)(=O)c1cccc2ccccc12.Cl (centres unmarked) [SAM4, ethyl 2-[N-(2-azaniumylethyl)naphthalene-1-sulfonamido]propanoate Chloride]
New length (cm) ([2]; hypocotyl, three days): 0.228 cm | Relative growth (cm) [2, 10]: 0.1574

Cl.NCCNS(=O)(=O)c1cccc2ccccc12 [eW5, 2′-Amino-1′-(1-naphthylsulfonylamino)Ethane Hydrochloric Acid Salt]
Effect on hypocotyl growth in mutant lacking all DELLA function [5]: no promotion of hypocotyl growth was observed | Recovery of hypocotyl elongation in ga1-5 [6]: could not recover hypocotyl elongation | Time after which the DELLA degradation response could be observed [1]: 2 h | GFP fluorescence / stability of DELLA protein in roots [1]: reduced GFP fluorescence | Fresh weight of roots and shoots ([7]; 12 days old seedlings): increased | Dry:fresh weight ratio in roots and shoots ([7]; dried at 65° C. for 3 days): increased | Root, stem and leaf growth in maize [8]: Improved root, stem (hypocotyl in particular) and leaf growth | Effect on hypocotyl length in gid1 double mutants compared with wild type [9]: the effect was reduced in the mutants | Effect on hypocotyl growth in wild type ([2]; three days): increased the hypocotyl length | Effect on hypocotyl growth in wild type ([2]; three days, listed as A1): stimulated hypocotyl growth in a manner very similar to GA | New Length ([2]; hypocotyl, three days, in cm): 0.9253 | Relative growth (cm) ([2]; hypocotyl, relative to DMSO control): 0.3497 | Effect on root growth compared to DMSO control ([3]; 5 days on chemical): promoted root growth
